Series [1] has as its system Prostate RM-1 Tumor Model. Kind of series: Anti-tumor efficacies of topotecan liposomes on prostate RM-1 tumor model. The note with it: single i.v. 10 mg/kg; for Tumor volume (mm^3): n = 10, x ± sd. In kind it is in vivo, female C57 mice. How it is done: RM-1 […] cancer cells were collected, and diluted with 1640 medium. After dilution, the tumor cell number was modulated to 2.0×10^6 cells/ml. 0.2 mL of the tumor cell suspension containing about 4×10^5 tumor cells was inoculated into forward limb oxter subcutaneous tissue of female C57 mice under aseptic condition. Twelve days after inoculation, mice were randomized by tumor volume into groups and administered with a single i.v. injection at a dose of 10 mg/kg.
The mice were bred normally after administration. Tumor diameters were measured to dynamically evaluate anti-tumor efficacies of different formulations. Tumor volume (TV) was calculated with the following formula: TV=½×a×b^2, in which a and b represent length and width, respectively.
The tumor volumes were calculated by using the measurement results. The experiment data were analyzed using SPSS 11.5 statistics software.

The subject of another series is KM mice. Kind of series: Toxicity of liposomal formulations in KM mice.
Where [2] appears, read: dosage level 40.6 mg/kg topotecan, two female KM mice per group, 14 days.

As to `CC[C@@]1(O)C(=O)OCc2c1cc1n(c2=O)Cc2cc3c(CN(C)C)c(O)ccc3nc2-1` [Free topotecan, topotecan], in series [1] (RM-1 tumor model), the “suppression of tumor growth in comparison with 5% glucose for injection as control” value is “did not significantly suppress the growth of tumor”. Besides, the “Tumor volume (mm^3)” value in series [1] (day 0 after administration) came to 223.0 ± 65.7 mm^3; in series [1] (day 2 after administration) it was 484.0 ± 154.7 mm^3; in series [1] (day 4 after administration), 606.0 ± 183.1 mm^3; in series [1] (day 6 after administration), 1060.7 ± 393.0 mm^3; in series [1] (day 8 after administration), 1301.8 ± 563.7 mm^3; in series [1] (day 9 after administration), 1628.5 ± 835.4 mm^3. Also, the “Tumor volume (mm^3)” value is given as 3592.9 ± 1523.5 mm^3 in series [1] (day 13 after administration) and 6639.3 ± 2388.2 mm^3 in series [1] (day 15 after administration). The “Number of Animals with >15% weight loss” value in the series with KM mice (dosage level 32.5 mg/kg topotecan, two female KM mice per group, 14 days) was determined as 1; in the series with KM mice (setting [2]) it was 2. Moreover, in the series on KM mice (setting [2]), the “number of dead animals” value is recorded as 1. Also, in the series with KM mice (topotecan formulations, KM mice), the order of toxicity entry is given as “free topotecan<liposome having SBE-CD/TA as inner water phase<liposome having sucrose octasulfate as inner water phase”.

(Values after patent publication US11357728B2, “Liposome having inner water phase containing sulfobutyl ether cyclodextrin salt” (CSPC ZHONGQI PHARMACEUTICAL TECHNOLOGY (SHIJIAZHUANG) CO., …, priority 2009, dated 2022).)
